How the values were obtained:
PI3Kγ = PI3Kγ (Homo sapiens, UniProt P48736); assay: PI3Kγ inhibitory activity (PI3-kinase HTRF assay, inhibition ratio); type: biochemical; conditions: 0.5 h, compound at 10 μmol/L; read-out: PI3Kg Inhibition Ratio % (10 μM)
Procedure: For each compound synthesized in the above Examples, PI3Kγ inhibitory activity was measured.
The PI3Kγ inhibitory activity of a compound was evaluated using PI3-kinase HTRF™ assay (Millipore) according to the following procedure:
To each well of a testing plate, 5 μL of a compound solution containing 10% DMSO (40 μmol/L as the concentration of the compound), 5 μL of a substrate solution (40 μmol/L phosphatidylinositol (4,5)-bisphosphate, 20 mmol/L MgCl2, 10 mmol/L DTT), and 5 μL of an enzyme solution (80 μg/mL PI-3 kinase y, 10 mmol/L MgCl2, 5 mmol/L DTT) were added, and then allowed to stand for 10 minutes.
Then, 5 μL of a reaction solution (40 μmol/L ATP, 10 mmol/L MgCl2, 5 mmol/L DTT) was added thereto. After reacting for 30 minutes at room temperature, 5 μL of a solution containing EDTA and biotinylated phosphatidylinositol (3,4,5)-triphosphate was added to quench the reaction.
5 μL of a detection reagent containing a europium-labeled anti-GST antibody, the GST-tagged PH domain, and allophycocyanin-labeled streptavidin was added thereto. After 18 hours, HTRF (excitation wavelength: 330 nm, measured wavelengths: 620 nm and 665 nm) was measured.
HTRF ratio was defined as the value obtained by dividing the amount of fluorescence obtained at the measured wavelength 665 nm by the amount of fluorescence obtained at 620 nm. The HTRF ratio in the absence of a compound was defined as 100% activity and the HTRF ratio in the absence of PI-3 kinase y was defined as 0% activity to calculate an inhibition ratio, which was defined as the PI3Kγ inhibitory activity of a compound at 10 μmol/L.

hERG channel (IKr) = target: T1, hERG channel (IKr) (Homo sapiens, UniProt Q12809); assay: hERG test (whole-cell patch-clamp, IKr in HEK293 cells); type: cell-based; conditions: human, HEK293 cells expressing hERG channel, pH 7.4, inhibition of maximum tail current (IKr), compound 1 μM
T1 construct: expressed in transfected cells; host or cells: HEK293
T1 sequence (Q12809 whole entry): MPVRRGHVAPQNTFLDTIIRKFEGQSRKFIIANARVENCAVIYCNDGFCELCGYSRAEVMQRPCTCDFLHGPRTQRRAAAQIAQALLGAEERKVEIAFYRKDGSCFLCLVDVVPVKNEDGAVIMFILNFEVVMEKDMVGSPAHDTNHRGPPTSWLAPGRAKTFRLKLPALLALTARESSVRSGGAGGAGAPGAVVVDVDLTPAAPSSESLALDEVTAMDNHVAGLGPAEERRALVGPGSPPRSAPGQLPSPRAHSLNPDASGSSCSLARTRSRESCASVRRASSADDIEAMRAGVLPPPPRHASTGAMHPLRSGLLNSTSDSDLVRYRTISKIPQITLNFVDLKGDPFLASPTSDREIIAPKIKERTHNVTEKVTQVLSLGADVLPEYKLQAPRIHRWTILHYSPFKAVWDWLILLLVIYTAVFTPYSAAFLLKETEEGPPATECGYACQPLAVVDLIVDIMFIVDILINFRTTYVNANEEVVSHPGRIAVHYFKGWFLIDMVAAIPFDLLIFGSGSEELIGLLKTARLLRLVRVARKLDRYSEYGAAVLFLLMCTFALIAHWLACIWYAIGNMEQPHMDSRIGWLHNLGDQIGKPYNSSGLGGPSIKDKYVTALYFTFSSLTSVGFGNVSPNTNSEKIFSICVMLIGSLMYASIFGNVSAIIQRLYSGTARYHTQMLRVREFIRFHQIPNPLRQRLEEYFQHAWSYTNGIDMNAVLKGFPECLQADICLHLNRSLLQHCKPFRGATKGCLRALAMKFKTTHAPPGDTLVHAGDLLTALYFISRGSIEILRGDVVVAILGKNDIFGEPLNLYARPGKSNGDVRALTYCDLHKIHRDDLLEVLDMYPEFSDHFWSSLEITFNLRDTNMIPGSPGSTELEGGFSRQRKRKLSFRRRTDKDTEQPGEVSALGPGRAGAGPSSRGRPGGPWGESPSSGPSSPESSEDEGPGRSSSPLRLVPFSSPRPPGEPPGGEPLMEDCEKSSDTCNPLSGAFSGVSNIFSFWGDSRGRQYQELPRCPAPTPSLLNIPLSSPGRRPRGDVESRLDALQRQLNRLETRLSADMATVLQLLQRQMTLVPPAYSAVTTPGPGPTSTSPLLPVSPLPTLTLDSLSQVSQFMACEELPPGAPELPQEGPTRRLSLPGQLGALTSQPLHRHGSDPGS
Excerpt: For the purpose of risk evaluation of QT interval extension of electrocardiogram, the activity on delayed rectification K^+ current (IKr), which plays an important role in a cardiac ventricle repolarization process, was examined using the HEK293 cell that was made to express human ether-a-go-go related gene (hERG) channel.
Using an automatic patch-clamp system (PatchXpress 7000A, Axon Instruments Inc.), by a whole-cell patch-clamp method, after the cell was maintained at a membrane potential of −80 mV, IKr induced upon applying depolarizing stimulation of +50 mV for 2 seconds and further applying repolarizing stimulation of −50 mV for 2 seconds was recorded. After generated electric current became stable, a test substance dissolved at an intended concentration in extracellular fluid (137 mmol/L NaCl, 4 mmol/L KCl, 1.8 mmol/L CaCl2.2H2O, 1 mmol/L MgCl2.6H2O, 10 mmol/L glucose, 10 mmol/L HEPES (4-(2-hydroxyethyl)-1-piperazineethanesulfonic acid), pH=7.4) was applied to the cell for 10 minutes under room temperature condition. From the obtained IKr, the absolute value of the maximum tail current was measured using analysis software (DataXpress ver. 1, Molecular Devices Corporation) and the value of the electric current in a maintained membrane potential as baseline. Moreover, an inhibition ratio for the maximum tail current prior to the application of the test substance was calculated and then compared with a group of media-application (0.1% dimethylsulfoxide solution) to evaluate influence of the test substance on IKr.

CYP3A4 = target: T2, CYP3A4 (Homo sapiens, UniProt P08684); assay: CYP3A4 fluorescence MBI test; type: in vitro ADME; conditions: difference in IC50 with 0 or 30 minutes pre-reaction; CYP3A4 expressed in E. coli, substrate 7-BFC
T2 construct: host or cells: E. coli
T2 sequence (P08684 whole entry): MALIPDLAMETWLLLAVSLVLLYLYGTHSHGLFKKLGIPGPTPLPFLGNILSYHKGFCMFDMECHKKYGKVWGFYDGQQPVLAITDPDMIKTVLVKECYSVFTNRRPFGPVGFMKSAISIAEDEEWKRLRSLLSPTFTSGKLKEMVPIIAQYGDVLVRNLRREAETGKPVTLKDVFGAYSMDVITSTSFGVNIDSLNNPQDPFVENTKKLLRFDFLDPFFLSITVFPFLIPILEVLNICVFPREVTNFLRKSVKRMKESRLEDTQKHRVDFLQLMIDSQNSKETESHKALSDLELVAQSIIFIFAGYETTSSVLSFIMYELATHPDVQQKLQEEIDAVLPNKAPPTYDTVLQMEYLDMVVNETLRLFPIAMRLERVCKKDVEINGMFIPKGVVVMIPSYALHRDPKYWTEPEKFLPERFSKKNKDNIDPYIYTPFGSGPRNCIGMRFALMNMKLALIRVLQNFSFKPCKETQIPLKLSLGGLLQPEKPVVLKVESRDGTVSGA
Procedure: The CYP3A4 fluorescence MBI test is a test to examine the enhancement of CYP3A4 inhibition of a compound by a metabolic reaction. The test was performed using as an index, a reaction to produce a metabolite 7-hydroxytrifluoromethylcoumarin (HFC) which emits fluorescence, in which CYP3A4 expressed in E. coli was used as an enzyme and 7-benzyloxytrifluoromethylcoumarin (7-BFC) is debenzylated by CYP3A4 enzyme.
The reaction conditions are as follows: substrate: 5.6 μmol/L 7-BFC; pre-reaction time; 0 or 30 minutes; reaction time: 15 minutes; reaction temperature: 25° C. (room temperature); content of CYP3A4 (an enzyme expressed in E. coli): […] at the time of a pre-reaction and […] (when diluted 10 times) at the time of a reaction; the concentrations of a test drug: 0.625, 1.25, 2.5, 5, 10, and 20 μmol/L (6 points).
In a 96-well plate, an enzyme solution and a test drug solution were added as a pre-reaction solution into K-Pi buffer solution (pH 7.4) in the aforementioned ratio. A portion thereof was transferred to another 96-well plate to be diluted ten times with a substrate and a K-Pi buffer solution. A coenzyme, NADPH, was then added to start a reaction, which is the index (this is without a pre-reaction). After reacting for a predetermined time, 4:1 of acetonitrile: 0.5 mol/L Tris (trishydroxyaminomethane) was added to quench the reaction. To the remaining pre-reaction solution, NADPH was added to start a pre-reaction (this is with a pre-reaction). After pre-reacting for a predetermined time, a portion thereof was transferred to another plate to be diluted ten times with a substrate and K-Pi buffer solution, and thereby the index reaction is started. After reacting for a predetermined time, 4:1 of acetonitrile:0.5 mol/L Tris (trishydroxyaminomethane) was added to quench the reaction. For each plate in which the index reaction was carried out, the fluorescence value of a metabolite 7-HFC was measured with a fluorescent plate reader (Ex=420 nm, Em=535 nm).
The case wherein only DMSO (a solvent which dissolved a drug) was added to a reaction system was defined as a control (100%). When a test drug solution was added, the remaining activity (%) at each concentration was calculated, and then IC50 was calculated with a concentration and an inhibition ratio by an inverse estimation using a logistic model. When the difference in IC50 value is 5 μmol/L or more, the compound is shown as (+). When 3 μmol/L or less, the compound is shown as (−).

[1] = Metabolic stability test (pooled human liver microsome); type: in vitro ADME; conditions: percentage of test compound remained after 30 minutes, pooled human liver microsome 0.5 mg protein/mL, 1 mmol/L NADPH, 37° C., compound 0.5 μM
Procedure: After a subject compound was reacted for a certain time using a pooled human liver microsome commercially available, a reacted sample and an unreacted sample are compared to calculate a survival ratio, and then the degree of metabolism in the liver was evaluated.
0.2 mL of a buffer solution (50 mmol/L of Tris-HCl in pH 7.4, 150 mmol/L of potassium chloride, and 10 mmol/L of magnesium chloride) containing a human liver microsome of 0.5 mg protein/mL was reacted in the presence of 1 mmol/L NADPH at 37° C. for 0 or 30 minutes (oxidative reaction). After reacting, 50 μL of the reaction solution was added to 100 μL of a solution of methanol/acetonitrile (1/1 (v/v)), mixed, and then centrifuged at 3000 rpm for 15 minutes. The test compound in the supernatant was quantitated with LC/MS/MS. The amount of the compound at a reaction time of 0 minute was defined as 100% and, based on that, the percentage of the test compound remained after reacting for 30 minutes was calculated.

Chain of PI3Kγ (P48736 whole entry, species assumed): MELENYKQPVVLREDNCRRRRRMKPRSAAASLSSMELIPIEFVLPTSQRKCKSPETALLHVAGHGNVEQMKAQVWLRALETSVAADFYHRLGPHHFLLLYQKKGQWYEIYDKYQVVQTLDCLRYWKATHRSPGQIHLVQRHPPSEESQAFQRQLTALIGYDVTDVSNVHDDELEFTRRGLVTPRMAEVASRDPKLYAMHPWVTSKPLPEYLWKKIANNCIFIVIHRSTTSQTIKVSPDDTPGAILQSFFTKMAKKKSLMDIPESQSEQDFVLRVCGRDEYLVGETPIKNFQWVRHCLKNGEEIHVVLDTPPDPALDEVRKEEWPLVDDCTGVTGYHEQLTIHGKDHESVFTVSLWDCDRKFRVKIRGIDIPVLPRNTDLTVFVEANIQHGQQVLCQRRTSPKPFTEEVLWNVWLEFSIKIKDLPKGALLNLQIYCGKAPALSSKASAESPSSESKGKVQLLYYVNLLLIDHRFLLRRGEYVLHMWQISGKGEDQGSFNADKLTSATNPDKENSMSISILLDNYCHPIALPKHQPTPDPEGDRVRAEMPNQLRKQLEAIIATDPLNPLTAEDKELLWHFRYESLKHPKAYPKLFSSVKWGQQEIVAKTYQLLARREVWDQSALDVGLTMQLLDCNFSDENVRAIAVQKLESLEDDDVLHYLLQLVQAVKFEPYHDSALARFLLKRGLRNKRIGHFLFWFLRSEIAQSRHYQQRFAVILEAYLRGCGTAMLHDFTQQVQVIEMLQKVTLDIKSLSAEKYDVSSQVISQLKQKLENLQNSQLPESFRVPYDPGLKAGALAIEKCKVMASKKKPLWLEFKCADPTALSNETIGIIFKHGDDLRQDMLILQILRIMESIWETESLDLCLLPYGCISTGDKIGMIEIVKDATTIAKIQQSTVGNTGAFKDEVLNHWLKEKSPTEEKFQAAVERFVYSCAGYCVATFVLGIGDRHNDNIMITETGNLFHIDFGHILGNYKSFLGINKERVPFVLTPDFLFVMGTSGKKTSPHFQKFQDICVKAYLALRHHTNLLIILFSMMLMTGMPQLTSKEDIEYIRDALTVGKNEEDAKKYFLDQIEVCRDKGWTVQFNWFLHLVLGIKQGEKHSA

inhibition at 10 µM (PI3Kγ) [%] | hLMS_ox(at 0.5 μM) % [1] [%] | Structure (SMILES) | inhibition at 10 min, 1 µM (hERG channel (IKr)) [%] | MBI (CYP3A4)
92 |  | COc1cc(N2CCc3nc(NC(=O)Nc4ccccc4C(=O)NC4CC4)sc3C2)nc(OC)n1 [Compound I-16] | 9.3 | 
≥ 95 |  | COc1cc(N2CCc3nc(NC(=O)NC4=C(C(=O)NC(C)C)CCC4)sc3C2)nc(OC)n1 [Compound I-29] | 8.7 | (−) (When 3 μmol/L or less, the compound is shown as (−))
 |  | COc1nc(N(C)C)cc(N2CCc3nc(NC(=O)Nc4ccccc4C(=O)NC(C)C)sc3C2)n1 [Compound I-41] | 5.6 | 
 |  | COc1cc(N2CCc3nc(NC(=O)Nc4ccccc4OC(C)C)sc3C2)nc(OC)n1 [Compound I-48] | 3.2 | 
 |  | COc1nc(Cl)cc(N2CCc3nc(NC(=O)Nc4ccccc4C(=O)NC(C)C)sc3C2)n1 [Compound I-53] | 5.1 | (−) (When 3 μmol/L or less, the compound is shown as (−))
 |  | COc1cc(N2CCc3nc(NC(=O)Nc4ccccc4OCCC(C)C)sc3C2)nc(OC)n1 [Compound I-55] | 7.7 | 
 | 83.5 | CCNC(=O)c1ccccc1NC(=O)Nc1nc2c(s1)CN(c1cc(OC)nc(OC)n1)CC2 [Compound I-57] | 5.3 | (−) (When 3 μmol/L or less, the compound is shown as (−))
 | 82.1 | COc1cc(N2CCc3nc(NC(=O)Nc4ccccc4C(=O)NC(C)C)sc3C2)cnc1OC [Compound I-80] | 5.5 | 
 |  | CCNC(=O)c1ccncc1NC(=O)Nc1nc2c(s1)CN(c1cc(Cl)nc(OC)n1)CC2 [Compound I-92] | 2.4 | 
≥ 95 |  | CCNC(=O)c1ccccc1NC(=O)Nc1nc2c(s1)CN(c1cc(Cl)nc(OC)n1)CC2 [Compound I-93] | 6.8 | (−) (When 3 μmol/L or less, the compound is shown as (−))
≥ 95 |  | CCNC(=O)c1ccncc1NC(=O)Nc1nc2c(s1)CN(c1cc(OC)nc(OC)n1)CC2 [Compound I-94] | 6.8 | (−) (When 3 μmol/L or less, the compound is shown as (−))
≥ 95 |  | COc1nccc(N2CCc3nc(NC(=O)Nc4ccccc4C(=O)NC(C)C)sc3C2)n1 [Compound I-95] | 3.7 | 
≥ 95 | 91.9 | COc1cc(N2CCc3nc(NC(=O)Nc4ccccc4C(=O)N[C@@H](C)CO)sc3C2)nc(OC)n1 [Compound I-101] | 9.6 | 
≥ 95 | 84.2 | COc1cc(N2CCc3nc(NC(=O)Nc4ccccc4C(=O)N[C@H](C)CO)sc3C2)nc(OC)n1 [Compound I-102] | 8.8 | 
 |  | COc1cncc(-c2ccc3nc(NC(=O)Nc4ccccc4C(=O)NC(C)C)cn3n2)c1 [Compound I-111] | 2.4 | (−) (When 3 μmol/L or less, the compound is shown as (−))
 |  | CCCCc1ccccc1NC(=O)Nc1nc2c(s1)CN(c1cc(OC)nc(OC)n1)CC2 [Compound I-150] | 3 | 

Source: patent publication US20120071475A1, “UREA DERIVATIVES HAVING PI3K-INHIBITING ACTIVITY” (SHIONOGI & CO., LTD., priority 2009, published 2012)
